This passage reports IC50 results from US9283247B2, “Chemically modified dendrimers” (Genzyme Corporation, priority 2007, dated 2016).

Common to all, as to assay type: cell-based
Experiment [1] relates to MMP-13. The experiment in a line: MMP-13 ELISA on supernatants of chondrocytes stimulated with IL-1β. Conditions: Homo sapiens, Chondrocyte; chondrocytes pretreated 2 hours, IL-1β 24 hours; protein (ELISA); N/A = did not affect MMP levels; read-out: IC50 constants for inhibition of MMP activity, MMP-13. The protocol: (§1) The effects of dendrimer compounds comprising n-acyl urea terminal moieties (i.e., dd-NAU) were evaluated for MMP activity in chondrocytes. […] In some instances, these effects were compared to dendrimer compounds comprising glucosamine terminal moieties (i.e., dd-Gln) and/or ethyl dimethylaminopropylurea (EDU). Chondrocytes were grown to confluency in 6-well plates (4 donors). The chondrocytes were pretreated with dendrimers (e.g., dd-NAU or dd-Gln) or EDU for 2 hours and then stimulated with IL-1β for 24 hours. Supernatants were collected and MMP-1, -3, and 13 ELISA assays were performed. The cells were collected for RNA analysis (3 donors).
(§2) Chondrocytes were grown to confluency in 6-well plates (2 donors). […] Supernatants were collected and MMP-1, -3, and 13 ELISA assays were performed. Neutral Red assays and Calcien AM assays were also performed on the chondrocytes to determine cell viability.
(In general: An ELISA detects its analyte on a solid surface through an enzyme-linked reagent.)

The subject of experiment [2] is MMP-1. The experiment in a line: MMP-1 ELISA on supernatants of chondrocytes stimulated with IL-1β. Conditions: Homo sapiens, Chondrocyte; chondrocytes pretreated 2 hours, IL-1β 24 hours; protein (ELISA); N/A = did not affect MMP levels; read-out: IC50 constants for inhibition of MMP activity, MMP-1. The procedure: as §1, §2
The subject of experiment [3] is MMP-3. The experiment in a line: MMP-3 ELISA on supernatants of chondrocytes stimulated with IL-1β. Conditions: Homo sapiens, Chondrocyte; chondrocytes pretreated 2 hours, IL-1β 24 hours; protein (ELISA); N/A = did not affect MMP levels; read-out: IC50 constants for inhibition of MMP activity, MMP-3. The protocol:
as §1, §2

As to `N[C@H]1C(O)O[C@H](CO)[C@@H](O)[C@@H]1O` (stereo partly drawn) [Glucosamine], the IC50 (usually the concentration at which inhibition is half-maximal) in experiment [1] was 1400 µM; in experiment [2] it was 1420 µM; in experiment [3] it was 600 µM.
